In patent US9113629B2, “4-amino-6-(4-substituted-phenyl)-picolinates and 6-amino-2-(4-substituted-phenyl)-pyrimidine-4-carboxylates and their use as herbicides” (DOW AGROSCIENCES LLC, priority 2013, dated 2015):
Read-outs that look alike come from different tables or passages of the source.

Columns and labels:
[1] = test system: Key Grass and Sedge Weeds as well as Grass Crops; assay: Post-emergent Test II herbicidal activity (Table 6); format: in vivo; details: post-emergence, 336 h; for pest or weed control at 140 g/ha: application rate 140 g ai/ha; for pest or weed control at 70 g/ha: application rate 70 g ai/ha
Summary of the method: (§1)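 Percent injury, 0 (none) to 100 (complete kill), was judged visually 14 d after spraying young plants at the first or second true leaf stage with compound in an acetone/DMSO aqueous carrier at 187 L/ha. Plants were kept in a greenhouse at 23–29 °C by day.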

[2] = test system: Key Broadleaf Weed and Crop Species; assay: Post-emergent Test II herbicidal activity (Table 5); format: in vivo; details: post-emergence, 336 h, post-emergent, 14 days after application; for pest or weed control at 70 g/ha: 70 g ai/ha; for pest or weed control at 140 g/ha: 140 g ai/ha
Summary of the method: as §1

[3] = Triticum aestivum, TRZSS (wheat), read-out: Visual Growth Reduction (%) 14 Days After Application, TRZSS
[4] = CYPES: yellow nutsedge (Cyperus esculentus), read-out: Visual Growth Reduction (%) 14 Days After Application, CYPES
[5] = DIGSA: crabgrass (Digitaria sanguinalis), read-out: Visual Growth Reduction (%) 14 Days After Application, DIGSA
[6] = ECHCG: barnyardgrass (Echinochloa crus-galli), read-out: Visual Growth Reduction (%) 14 Days After Application, ECHCG
[7] = ORYSA: rice (Oryza sativa), read-out: Visual Growth Reduction (%) 14 Days After Application, ORYSA
[8] = SETFA: giant foxtail (Setaria faberi), read-out: Visual Growth Reduction (%) 14 Days After Application, SETFA
[9] = SORVU: grain sorghum (Sorghum vulgare), read-out: Visual Growth Reduction (%) 14 Days After Application, SORVU
[10] = ZEAMX: maize, corn (Zea mays), read-out: Visual Growth Reduction (%) 14 Days After Application, ZEAMX
[11] = ABUTH: velvetleaf (Abutilon theophrasti), read-out: Visual Growth Reduction (%) 14 Days After Application ABUTH
[12] = AMARE: redroot pigweed (Amaranthus retroflexus), read-out: Visual Growth Reduction (%) 14 Days After Application AMARE
[13] = BRSNN: oilseed-rape, canola (Brassica napus), read-out: Visual Growth Reduction (%) 14 Days After Application BRSNN
[14] = CHEAL: lambsquarters (Chenopodium album), read-out: Visual Growth Reduction (%) 14 Days After Application CHEAL
[15] = EPHHL: wild poinsettia (Euphorbia heterophylla), read-out: Visual Growth Reduction (%) 14 Days After Application EPHHL
[16] = HELAN: sunflower (Helianthus annuus), read-out: Visual Growth Reduction (%) 14 Days After Application HELAN
[17] = VIOTR: wild pansy (Viola tricolor), read-out: Visual Growth Reduction (%) 14 Days After Application VIOTR

Row | SMILES | pest or weed control at 140 g/ha [1, 3] [%] | pest or weed control at 70 g/ha [1, 4] [%] | pest or weed control at 140 g/ha [1, 4] [%] | pest or weed control at 70 g/ha [1, 5] [%] | pest or weed control at 140 g/ha [1, 5] [%] | pest or weed control at 70 g/ha [1, 6] [%] | pest or weed control at 140 g/ha [1, 6] [%] | pest or weed control at 70 g/ha [1, 7] [%] | pest or weed control at 140 g/ha [1, 7] [%] | pest or weed control at 70 g/ha [1, 8] [%] | pest or weed control at 140 g/ha [1, 8] [%] | pest or weed control at 70 g/ha [1, 9] [%] | pest or weed control at 140 g/ha [1, 9] [%] | pest or weed control at 70 g/ha [1, 10] [%] | pest or weed control at 140 g/ha [1, 10] [%] | pest or weed control at 70 g/ha [2, 11] [%] | pest or weed control at 140 g/ha [2, 11] [%] | pest or weed control at 70 g/ha [2, 12] [%] | pest or weed control at 140 g/ha [2, 12] [%] | pest or weed control at 70 g/ha [2, 13] [%] | other results
1 | COC(=O)c1nc(-c2cc(F)c(I)cc2F)c(F)c(N)c1Cl [Compound 55, methyl 4-amino-3-chloro-6-(2,5-difluoro-4-iodophenyl)-5-fluoropicolinate] | 95 to 100 | 95 to 100 | 95 to 100 | 85 to 94 | 85 to 94 | 95 to 100 | 95 to 100 | 0 to 29 | 0 to 29 | 95 to 100 | 95 to 100 | 85 to 94 | 95 to 100 | 60 to 74 | 85 to 94 | 95 to 100 | 95 to 100 | 95 to 100 | 95 to 100 | 95 to 100 | pest or weed control at 140 g/ha [2, 13]: 95 to 100%; pest or weed control at 70 g/ha [2, 14]: 95 to 100%; pest or weed control at 140 g/ha [2, 14]: 95 to 100%; pest or weed control at 70 g/ha [2, 15]: 95 to 100%; pest or weed control at 140 g/ha [2, 15]: 95 to 100%; pest or weed control at 70 g/ha [2, 16]: 95 to 100%; pest or weed control at 140 g/ha [2, 16]: 95 to 100%; pest or weed control at 70 g/ha [2, 17]: 95 to 100%; pest or weed control at 140 g/ha [2, 17]: 95 to 100%
2 | COC(=O)c1nc(-c2cc(F)c(I)cc2F)cc(N)c1Cl [Compound 56] | 60 to 74 | 95 to 100 | 95 to 100 | 75 to 84 | 85 to 94 | 95 to 100 | 95 to 100 | 0 to 29 | 0 to 29 | 95 to 100 | 95 to 100 | 75 to 84 | 85 to 94 | 85 to 94 | 85 to 94 | 95 to 100 | 95 to 100 | 95 to 100 | 95 to 100 | 85 to 94 | pest or weed control at 70 g/ha [1, 3]: 60 to 74%; pest or weed control at 140 g/ha [2, 13]: 85 to 94%; pest or weed control at 70 g/ha [2, 14]: 95 to 100%; pest or weed control at 140 g/ha [2, 14]: 95 to 100%; pest or weed control at 70 g/ha [2, 15]: 95 to 100%; pest or weed control at 140 g/ha [2, 15]: 95 to 100%; pest or weed control at 70 g/ha [2, 16]: 75 to 84%; pest or weed control at 140 g/ha [2, 16]: 85 to 94%; pest or weed control at 70 g/ha [2, 17]: 95 to 100%; pest or weed control at 140 g/ha [2, 17]: 95 to 100%
3 | C=Cc1c(C(=O)OC)nc(-c2ccc(Br)cc2)c(F)c1N [Compound 57, methyl 4-amino-6-(4-bromophenyl)-5-fluoro-3-vinylpicolinate] | 0 to 29 | 95 to 100 | 95 to 100 | 0 to 29 | 0 to 29 | 0 to 29 | 0 to 29 | 0 to 29 | 0 to 29 | 0 to 29 | 0 to 29 | 75 to 84 | 95 to 100 | 0 to 29 | 0 to 29 | 85 to 94 | 85 to 94 | 85 to 94 | 95 to 100 | 60 to 74 | pest or weed control at 70 g/ha [1, 3]: 0 to 29%; pest or weed control at 140 g/ha [2, 13]: 75 to 84%; pest or weed control at 70 g/ha [2, 14]: 85 to 94%; pest or weed control at 140 g/ha [2, 14]: 85 to 94%; pest or weed control at 70 g/ha [2, 15]: 85 to 94%; pest or weed control at 140 g/ha [2, 15]: 85 to 94%; pest or weed control at 70 g/ha [2, 16]: 85 to 94%; pest or weed control at 140 g/ha [2, 16]: 85 to 94%; pest or weed control at 70 g/ha [2, 17]: 0 to 29%; pest or weed control at 140 g/ha [2, 17]: 0 to 29%
